Structures can show the parent of a compound that is named as a salt.

The values below come from US20100285963A1, “SUBSTITUTED FLUOROALKOXYPHENYLSULFONYLUREAS” (priority 2001, published 2010).

In data set [1] the test system is weeds. The experiment in a line: Pre-emergence test (greenhouse), damage to weeds. Type of data set: in vivo. On the procedure: (§1) Solvent: 5 parts by weight of acetone
(§2) Emulsifier: 1 part by weight of alkylaryl polyglycol ether
(§3) To produce a suitable preparation of active compound, 1 part by weight of active compound is mixed with the stated amount of solvent, the stated amount of emulsifier is added and the concentrate is diluted with water to the desired concentration.
(§4) Seeds of the test plants are sown in normal soil. After 24 hours, the soil is sprayed with the preparation of active compounds such that the particular amount of active compound desired is applied per unit area. The concentration of active compound in the spray liquor is chosen such that the particular amount of active compound desired is applied in 1000 liters of water per hectare.
(§5) After three weeks, the degree of damage to the plants is rated in % damage in comparison to the development of the untreated control. The figures denote: • 0%=no effect (like untreated control) • 100%=total destruction

Data set [2] deals with crop plants, such as, for example, wheat and soya. The experiment in a line: Pre-emergence test (greenhouse), tolerance by crop plants. Conditions: 125 g of a.i./ha, after three weeks. In kind it is in vivo. On the procedure:
as §1, §2, §3, §4, §5

Data set [3] has as its system weeds. The experiment in a line: Post-emergence test (greenhouse), damage to weeds. Type of data set: in vivo. On the procedure:
as §1, §2
(§6) To product a suitable preparation of active compound, 1 part by weight of active compound is mixed with the stated amount of solvent, the stated amount of emulsifier is added and the concentrate is diluted with water to the desired concentration.
(§7) Test plants of a height of 5-15 cm are sprayed with the preparation of active compound such that the particular amounts of active compound desired are applied per unit area. The concentration of the spray liquor is chosen such that the particular amounts of active compound desired are applied in 10001 of water/ha.
(§8) After three weeks, the degree of damage to the plants is rated in % damage in comparison to the development of the untreated control.
(§9) The figures denote: • 0%=no effect (like untreated control) • 100%=total destruction

In data set [4] the test system is crop plants, such as, for example, corn, wheat and sugar beet. The experiment in a line: Post-emergence test (greenhouse), tolerance by crop plants. In kind it is in vivo. Conditions: 125 g of a.i./ha, after three weeks. On the procedure: as §1, §2, §6, §7, §8, §9
For data set [5], the system named is apple mildew pathogen Podosphaera leucotricha. Briefly: Podosphaera test (apple)/protective. Type of data set: in vivo. The following applies: protective, application rate of 100 g/ha, evaluation 10 days after the inoculation. The method, then:
Solvent: 49 parts by weight of acetone
as §2
To produce a suitable preparation of active compound, 1 part by weight of active compound is mixed with the stated amounts of solvent and emulsifier, and the concentrate is diluted with water to the desired concentration.
To test for protective activity, young plants are sprayed with the preparation of active compound at the stated application rate. After the spray coating has dried on, the plants are inoculated with an aqueous spore suspension of the apple mildew pathogen Podosphaera leucotricha. The plants are then placed in a greenhouse at about 23° C. and a relative atmospheric humidity of about 70%.
Evaluation is carried out 10 days after the inoculation. 0% means an efficacy which corresponds to that of the control, whereas an efficacy of 100% means that no infection is observed.

[6] abbreviates: 125 g of a.i./ha, after three weeks.
The mark [7] stands for this setting: 250 g of a.i./ha, after three weeks.

Consider `COc1nc(C)nc(NC(=O)NS(=O)(=O)c2c(C)cccc2OCCF)n1` (as salt: sodium) [Example 2, N-[2-(2-fluoroethoxy)-6-methylphenyl-sulfonyl]-M-(4-methoxy-6-methyl-1,3,5-triazin-2-yl)urea sodium salt], for which the melting point (in general, the temperature of the solid-liquid transition) was determined as 185 °C.
`CCCc1cccc(OCCCF)c1S(=O)(=O)NC(=O)Nc1nc(OC)cc(OC)n1` [(25)]: in the data set on weeds [1] (setting [6]), the “% damage Chenopodium” value stood at 90%, the “% damage Datura” value is given as 90%, the “% damage Echinochloa” value was 90% and the “% damage Stellaria” value is 90%. Besides, the “% damage Viola” value with weeds [1] (setting [6]) was determined as 100%. Moreover, in the data set on weeds [1] (setting [7]), the “% damage Alopecurus” value was determined as 95%, the “% damage Amaranthus” value is on record as 100%, the “% damage Avena fatua” value is given as 90% and the “% damage Galium” value is on record as 95%. In addition, in the data set on weeds [1] (setting [7]), the “% damage Setaria” value is on record as 100% and the “% damage Xanthium” value came out at 100%. Besides, the “% damage Wheat” value in data set [2] came out at 0%. Also, in the data set with weeds [3] (setting [6]), the “% damage Abutilon” value came to 95%, the “% damage Alopecurus” value was found to be 90%, the “% damage Amaranthus” value is 100% and the “% damage Datura” value is 100%. Also, the “% damage Solanum” value in the data set on weeds [3] (setting [6]) stood at 100%. In addition, in the data set on weeds [3] (setting [7]), the “% damage Abutilon” value was 100%, the “% damage Alopecurus” value is 90%, the “% damage Amaranthus” value came to 100% and the “% damage Avena fatua” value is 90%. In the data set with weeds [3] (setting [7]), the “% damage Galium” value was 100%, the “% damage Setaria” value amounted to 100% and the “% damage Sinapis” value was found to be 100%. Besides, the “% damage Wheat” value in data set [4] stood at 10%.
Consider `COc1nc(C)nc(NC(=O)NS(=O)(=O)c2c(C)cccc2OCCF)n1` [Example 1, N-[2-(2-fluoroethoxy)-6-methylphenylsulfonyl]-N′-(4-methoxy-6-methyl-1,3,5-triazin-2-yl)urea], for which the melting point turned out to be 161 °C. Moreover, in the data set with weeds [1] (soil sprayed 24 hours after sowing, rated after three weeks as % damage vs untreated control), the activity against weeds entry is listed as “very strong activity”. In the data set on weeds [3] (test plants of 5-15 cm sprayed, rated after three weeks as % damage vs untreated control), the activity against weeds result is listed as “very strong activity”. The “efficacy against mildew of apples (Podosphaera leucotricha)” value in data set [5] worked out at 100%.
